Drawing on patent US6878713B2, “Generation triple-targeting, chiral, broad-spectrum antimicrobial 7-substituted piperidino-quinolone carboxylic acid derivatives, their preparation, compositions and use as medicaments” (Wockhardt Limited, priority 2001, dated 2005), this text covers melting point for 29 compounds.

As to `CCNC1C(C)CN(c2c(F)cc3c(=O)c(C(=O)O)cn(C4CC4)c3c2OC)CC1C` (centres unmarked) [Example 38, 1-cyclopropyl-6-fluoro-1,4-dihydro-8-methoxy-7-(4-ethylamino-3,5-dimethyl-1-piperidinyl)-4-oxo-quinoline-3-carboxylic acid], the melting point (as a rule, the temperature of the solid-liquid transition) fell in the range of 250 to 252 °C.

The compound `CNC1C(C)CN(c2c(F)c(N)c3c(=O)c(C(=O)O)cn(C4CC4)c3c2OC)CC1C` (centres unmarked) [Compound 83, 5-Amino-1-cyclopropyl-6-fluoro-1,4-dihydro-8-methoxy-7-(4-methylamino-3,5-dimethyl-1-piperidinyl)-4-oxo-quinoline-3-carboxylic acid] gave a melting point of 224 to 226 °C.

With `CCC1(C)CN(c2c(F)c(N)c3c(=O)c(C(=O)O)cn(C4CC4)c3c2OC)CCC1NC1CC1` (centres unmarked) [Compound 79, 5-Amino-1-cyclopropyl-6-fluoro-1,4-dihydro-8-methoxy-7-(4-cyclopropylamino-3-methyl-3-ethyl-1-piperidinyl)-4-oxo-quinoline-3-carboxylic acid], the melting point lay within 186 to 188 °C.

As for `CCC1(C)CN(c2c(F)cc3c(=O)c(C(=O)O)cn(C4CC4)c3c2OC)CCC1NC1CC1` (centres unmarked) [Compound 41, 1-Cyclopropyl-6-fluoro-1,4-dihydro-8-methoxy-7-(4-cyclopropylamino-3-ethyl-3-methyl-1-piperidinyl)-4-oxo-quinoline-3-carboxylic acid], the melting point was in the range of 210 to 212 °C.

`CCC1(C)CN(c2c(F)cc3c(=O)c(C(=O)O)cn(C4CC4)c3c2OC)CCC1N(C)C` (centres unmarked) [Compound 42, 1-Cyclopropyl-6-fluoro-1,4-dihydro-8-methoxy-7-(4-dimethylamino-3-ethyl-3-methyl-1-piperidinyl)-4-oxo-quinoline-3-carboxylic acid] returned a melting point of 210 to 212 °C.

In turn, `CCNC1CCN(c2c(F)cc3c(=O)c(C(=O)O)cn(C4CC4)c3c2OC)CC1C` (centres unmarked) [Compound 10, 1-Cyclopropyl-6-fluoro-1,4-dihydro-8-methoxy-7-(4-ethylamino-3-methyl-1-piperidinyl)-4-oxo-quinoline-3-carboxylic acid] returned a melting point of 160 to 162 °C.

Regarding `CCC1CN(c2c(F)c(N)c3c(=O)c(C(=O)O)cn(C4CC4)c3c2OC)CCC1O` (centres unmarked) [Compound 137, 5-Amino-1-cyclopropyl-6-fluoro-1,4-dihydro-8-methoxy-7-(4-hydroxy-3-ethyl-1-piperidinyl)-4-oxo-quinoline-3-carboxylic acid], the melting point was 217 to 219 °C.

With `COc1c(N2CC(C)C(N)C(C)C2)c(F)cc2c(=O)c(C(=O)O)cn(C3CC3)c12` (centres unmarked) [Example 34, 1-cyclopropyl-6-fluoro-1,4-dihydro-8-methoxy-7-(4-amino-3,5-dimethyl-1-piperidinyl)-4-oxo-quinoline-3-carboxylic acid], the melting point is 200 to 204 °C.

`Cc1c(N2CCC(N(C)C)C(C)(C)C2)c(F)cc2c(=O)c(C(=O)O)cn(C3CC3)c12` (centres unmarked) [Compound 116, 1-Cyclopropyl-6-fluoro-1,4-dihydro-8-methyl-7-(4-dimethylamino-3,3-dimethyl-1-piperidinyl)-4-oxo-quinoline-3-carboxylic acid] showed a melting point of 209 to 210 °C.

In the case of `CCNC1CCN(c2c(F)c(N)c3c(=O)c(C(=O)O)cn(C4CC4)c3c2OC)CC1(C)C` (centres unmarked) [Compound 74, 5-Amino-1-cyclopropyl-6-fluoro-1,4-dihydro-8-methoxy-7-(4-ethylamino-3,3-dimethyl-1-piperidinyl)-4-oxo-quinoline-3-carboxylic acid], the melting point is 205 °C (dec.).

`COc1c(N2CCC(N)C(C)C2)c(F)c(N)c2c(=O)c(C(=O)O)cn(C3CC3)c12` (centres unmarked) [Compound 53, 5-Amino-1-cyclopropyl-6-fluoro-1,4-dihydro-8-methoxy-7-(4-amino-3-methyl-1-piperidinyl)-4-oxo-quinoline-3-carboxylic acid] displayed a melting point of 260 to 262 °C.

As for `CCC1(C)CN(c2c(F)c(N)c3c(=O)c(C(=O)O)cn(C4CC4)c3c2OC)CCC1NC` (centres unmarked) [Compound 78, 5-Amino-1-cyclopropyl-6-fluoro-1,4-dihydro-8-methoxy-7-(4-methylamino-3-ethyl-3-methyl-1-piperidinyl)-4-oxo-quinoline-3-carboxylic acid], the melting point is 164 to 166 °C.

In turn, `COc1c(N2CC(C)C(N)C(C)C2)c(F)cc2c(=O)c(C(=O)O)cn(C3CC3)c12` (centres unmarked) [Compound 44, 1-Cyclopropyl-6-fluoro-1,4-dihydro-8-methoxy-7-(4-amino-3,5-dimethyl-1-piperidinyl)-4-oxo-quinoline-3-carboxylic acid] registered a melting point of 178 to 180 °C.

`COc1c(N2CC(C)C(N)C(C)C2)c(F)cc2c(=O)c(C(=O)O)cn(C3CC3)c12` (centres unmarked) [Example 33, 1-cyclopropyl-6-fluoro-1,4-dihydro-8-methoxy-7-(4-amino-3,5-dimethyl-1-piperidinyl)-4-oxo-quinoline-3-carboxylic acid] came in with a melting point of 238 to 240 °C.

On to `COc1c(N2CC(C)C(N)C(C)C2)c(F)c(N)c2c(=O)c(C(=O)O)cn(C3CC3)c12` (centres unmarked) [Example 53, 5-Amino-1-cyclopropyl-6-fluoro-1,4-dihydro-8-methoxy-7-(4-amino-3,5-dimethyl-1-piperidinyl)-4-oxo-quinoline-3-carboxylic acid], for which the melting point was 248 to 250 °C (dec.).

In turn, `CCNC1CCN(c2c(F)c(N)c3c(=O)c(C(=O)O)cn(C4CC4)c3c2OC)CC1C` (centres unmarked) [Compound 61, 5-Amino-1-cyclopropyl-6-fluoro-1,4-dihydro-8-methoxy-7-(4-ethylamino-3-methyl-1-piperidinyl)-4-oxo-quinoline-3-carboxylic acid] gave a melting point of 230 to 232 °C.

In the case of `CNC1CCN(c2c(F)c(N)c3c(=O)c(C(=O)O)cn(C4CC4)c3c2OC)CC1C` (centres unmarked) [Compound 60, 5-Amino-1-cyclopropyl-6-fluoro-1,4-dihydro-8-methoxy-7-(4-methylamino-3-methyl-1-piperidinyl)-4-oxo-quinoline-3-carboxylic acid], the melting point is 228 to 230 °C (dec.).

For the compound `COc1c(N2CCC(NC(C)=O)C(C)(C)C2)c(F)cc2c(=O)c(C(=O)O)cn(C3CC3)c12` (centres unmarked) [Compound 29, 1-Cyclopropyl-6-fluoro-1,4-dihydro-8-methoxy-7-(4-acetylamino-3,3-dimethyl-1-piperidinyl)-4-oxo-quinoline-3-carboxylic acid], the melting point is 194 to 196 °C.

`CCNC1CCN(c2c(F)cc3c(=O)c(C(=O)O)cn(C4CC4)c3c2C)CC1(C)C` (centres unmarked) [Compound 115, 1-Cyclopropyl-6-fluoro-1,4-dihydro-8-methyl-7-(4-ethylamino-3,3-dimethyl-1-piperidinyl)-4-oxo-quinoline-3-carboxylic acid] gave a melting point of 201 to 203 °C.

For the compound `CCC1(C)CN(c2c(F)cc3c(=O)c(C(=O)O)cn(C4CC4)c3c2OC)CCC1NC` (centres unmarked) [Compound 40, 1-Cyclopropyl-6-fluoro-1,4-dihydro-8-methoxy-7-(4-methylamino-3-ethyl-3-methyl-1-piperidinyl)-4-oxo-quinoline-3-carboxylic acid], the melting point was in the range of 182 to 184 °C.

`CCC1(C)CN(c2c(F)c(N)c3c(=O)c(C(=O)O)cn(C4CC4)c3c2OC)CCC1N(C)C` (centres unmarked) [Compound 80, 5-Amino-1-cyclopropyl-6-fluoro-1,4-dihydro-8-methoxy-7-(4-dimethylamino-3-methyl-3-ethyl-1-piperidinyl)-4-oxo-quinoline-3-carboxylic acid] registered a melting point of 194 to 196 °C.

For `CCC1CN(c2c(F)cc3c(=O)c(C(=O)O)cn(C4CC4)c3c2OC)CCC1O` (centres unmarked) [Compound 136, 1-Cyclopropyl-6-fluoro-1,4-dihydro-8-methoxy-7-(4-hydroxy-3-ethyl-1-piperidinyl)-4-oxo-quinoline-3-carboxylic acid], the melting point was in the range of 188 to 190 °C.

In the case of `CCC1(C)CN(c2c(F)cc3c(=O)c(C(=O)O)cn(C4CC4)c3c2OC)CCC1N` (centres unmarked) [Compound 39, 1-Cyclopropyl-6-fluoro-1,4-dihydro-8-methoxy-7-(4-amino-3-ethyl-3-methyl-1-piperidinyl)-4-oxo-quinoline-3-carboxylic acid], the melting point was 152 to 154 °C.

With `COc1c(N2CCC(N(C)C)C(C)C2)c(F)cc2c(=O)c(C(=O)O)cn(C3CC3)c12` (centres unmarked) [Compound 13, 1-Cyclopropyl-6-fluoro-1,4-dihydro-8-methoxy-7-(4-dimethylamino-3-methyl-1-piperidinyl)-4-oxo-quinoline-3-carboxylic acid], the melting point lay in the range of 180 to 182 °C.

As for `CNC1CCN(c2c(F)cc3c(=O)c(C(=O)O)cn(C4CC4)c3c2OC)CC1C` (centres unmarked) [Compound 8, 1-Cyclopropyl-6-fluoro-1,4-dihydro-8-methoxy-7-(4-methylamino-3-methyl-1-piperidinyl)-4-oxo-quinoline-3-carboxylic acid], the melting point was 240 °C (dec.).

As to `COc1c(N2CCC(NC3CC3)C(C)(C)C2)c(F)cc2c(=O)c(C(=O)O)cn(C3CC3)c12` (centres unmarked) [Compound 37, 1-Cyclopropyl-6-fluoro-1,4-dihydro-8-methoxy-7-(4-cyclopropylamino-3,3-dimethyl-1-piperidinyl)-4-oxo-quinoline-3-carboxylic acid], the melting point lay within 190 to 192 °C.

Compound `CNC1CCN(c2c(F)cc3c(=O)c(C(=O)O)cn(C4CC4)c3c2C)CC1C` (centres unmarked) [Compound 113, 1-Cyclopropyl-6-fluoro-1,4-dihydro-8-methyl-7-(4-methylamino-3-methyl-1-piperidinyl)-4-oxo-quinoline-3-carboxylic acid] gave a melting point of 233 to 235 °C.

Turning to `COc1c(N2CCC(NC(=O)OCc3ccccc3)C(C)(C)C2)c(F)cc2c(=O)c(C(=O)O)cn(C3CC3)c12` (racemic) [Compound 32, (±)-1-Cyclopropyl-6-fluoro-1,4-dihydro-8-methoxy-7-(4-benzyloxycarbonylamino-3,3-dimethyl-1-piperidinyl)-4-oxo-quinoline-3-carboxylic acid], the melting point lay in the range of 158 to 160 °C.

Turning to `COc1c(N2CC[C@@H](N)[C@H](C)C2)c(F)cc2c(=O)c(C(=O)O)cn(C3CC3)c12` (relative stereo) [Compound 2, trans-1-Cyclopropyl-6-fluoro-1,4-dihydro-8-methoxy-7-(4-amino-3-methyl-1-piperidinyl)-4-oxo-quinoline-3carboxylic acid], the melting point was 240 to 242 °C.
